Data on one compound can be found in patent publication US20050159352A1, “Use of monocarboxylate transporter protein for thyroid hormone transport” (priority 2002, published 2005).

Like-named read-outs stand apart in the source and are kept apart here.

The target of assay [1] is T1, MCT8 (Rattus norvegicus, UniProt Q8K1P8, G227D/I169T/S199P/T171I). Put plainly: Transport kinetics of MCT8-mediated iodothyronine uptake in oocytes (Michaelis-Menten). The settings on record: net transport. Set-up: dose or concentration left out as unconfirmed. The method, then:
Apparent Km values were calculated by fitting the plot of uptake rate (v) versus ligand concentration (5) to the Michaelis Menten equation: v=Vmax/(1+Km/S), wherein Vmax is the maximum uptake rate, and Km the Michaelis constant. Calculations were performed using the Slide Write Plus program version 5.01 (Advanced Graphics Software).

Another assay deals with T2, rat MCT1 (Rattus norvegicus, UniProt P53987).
T2 sequence (P53987 1-494): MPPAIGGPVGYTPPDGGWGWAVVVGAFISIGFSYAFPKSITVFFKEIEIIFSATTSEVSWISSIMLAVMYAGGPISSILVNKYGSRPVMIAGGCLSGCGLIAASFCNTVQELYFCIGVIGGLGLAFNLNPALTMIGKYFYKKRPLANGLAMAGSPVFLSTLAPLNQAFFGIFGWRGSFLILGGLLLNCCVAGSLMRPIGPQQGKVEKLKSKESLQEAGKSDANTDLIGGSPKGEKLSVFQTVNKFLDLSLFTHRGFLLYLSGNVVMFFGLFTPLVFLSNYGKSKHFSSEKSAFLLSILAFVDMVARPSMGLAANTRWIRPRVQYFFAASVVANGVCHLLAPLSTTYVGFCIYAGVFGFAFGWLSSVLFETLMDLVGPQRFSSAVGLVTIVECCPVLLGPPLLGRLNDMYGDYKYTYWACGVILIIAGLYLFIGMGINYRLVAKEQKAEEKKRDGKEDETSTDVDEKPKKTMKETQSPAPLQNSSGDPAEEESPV
Particulars: data not shown.

Assay [2] concerns the target T1, MCT8. In words: Inhibition of uptake of labeled T4 and T3 in MCT8 cRNA-injected oocytes by putative competitors. It counts as cell-based. Further details: the stop codon of MCT8 was removed by performing PCR using the same sense primer as above; expressed in transfected cells; host or cells: Xenopus laevis oocytes injected with cRNA transcribed from pGEM-HeJuel. The method, then:
(§1) Oocytes were isolated and allowed to recover overnight at 18 C in modified Barth's solution containing 20 IU/ml penicillin and 20 gg/ml streptomycin as described before (23). […] Uninjected or water injected oocytes were used as controls.
Transport measurements in oocytes—Oocytes were washed and preincubated at 18 C in standard uptake solution (100 mM NaCl, 2 mM KCl, 1 mM CaCl2, 1 mM MgCl2, 10 mM HEPES, and 10 mM Tris, pH 7.5). […] The possible Na^+ dependence of transport was tested by preincubation and incubation in Na^+-free uptake solution in which NaCl was replaced by choline chloride. The influence of the temperature on the uptake rate was tested by the incubation of oocytes with uptake solutions at different temperatures between 4 and 37 C. […] The incubation was stopped by aspiration of the medium, and oocytes were washed 4 times at 4 C with standard uptake solution containing 0.1% BSA.

Assay [3] concerns the target T1, MCT8. In words: Transport (uptake) of radioactive ligands by MCT8 expressed in X. laevis oocytes. It counts as cell-based. Further details: the stop codon of MCT8 was removed by performing PCR using the same sense primer as above; expressed in transfected cells; host or cells: Xenopus laevis oocytes injected with cRNA transcribed from pGEM-HeJuel. The method, then: Xenopus oocytes were isolated and injected with 4.6 ng rat MCTS cRNA. After 3 days, groups of 10 injected or uninjected oocytes were incubated for 60 mm at 25 C with 10 nM radioactive iodothyronines in 0.1 ml medium. Uptake of iodothyronines was determined as previously described (18).
as §1
Transport measurements in oocytes—Oocytes were washed and preincubated at 18 C in standard uptake solution (100 mM NaCl, 2 mM KCl, 1 mM CaCl2, 1 mM MgCl2, 10 mM HEPES, and 10 mM Tris, pH 7.5). Usually, transport was tested by incubation of groups of 5-10 oocytes for 2-60 mm at 25 C with 10 nM [1251]iodothyronines or 10 μM [3H]amino acids in 0.1 ml standard uptake solution. The possible Na^+ dependence of transport was tested by preincubation and incubation in Na^+-free uptake solution in which NaCl was replaced by choline chloride. The influence of the temperature on the uptake rate was tested by the incubation of oocytes with uptake solutions at different temperatures between 4 and 37 C. […] The incubation was stopped by aspiration of the medium, and oocytes were washed 4 times at 4 C with standard uptake solution containing 0.1% BSA.

Assay [4] concerns the target T1, MCT8. The description is as above. It is filed as cell-based. Further details: the stop codon of MCT8 was removed by performing PCR using the same sense primer as above; expressed in transfected cells; host or cells: Xenopus laevis oocytes injected with cRNA transcribed from pGEM-HeJuel. Particulars: 0.23 ng MCT8 cRNA injected; 10 nM ligand, 2 min, 25 C.

T1 sequence (Q8K1P8 whole entry I169T/T171I/S199P/G227D): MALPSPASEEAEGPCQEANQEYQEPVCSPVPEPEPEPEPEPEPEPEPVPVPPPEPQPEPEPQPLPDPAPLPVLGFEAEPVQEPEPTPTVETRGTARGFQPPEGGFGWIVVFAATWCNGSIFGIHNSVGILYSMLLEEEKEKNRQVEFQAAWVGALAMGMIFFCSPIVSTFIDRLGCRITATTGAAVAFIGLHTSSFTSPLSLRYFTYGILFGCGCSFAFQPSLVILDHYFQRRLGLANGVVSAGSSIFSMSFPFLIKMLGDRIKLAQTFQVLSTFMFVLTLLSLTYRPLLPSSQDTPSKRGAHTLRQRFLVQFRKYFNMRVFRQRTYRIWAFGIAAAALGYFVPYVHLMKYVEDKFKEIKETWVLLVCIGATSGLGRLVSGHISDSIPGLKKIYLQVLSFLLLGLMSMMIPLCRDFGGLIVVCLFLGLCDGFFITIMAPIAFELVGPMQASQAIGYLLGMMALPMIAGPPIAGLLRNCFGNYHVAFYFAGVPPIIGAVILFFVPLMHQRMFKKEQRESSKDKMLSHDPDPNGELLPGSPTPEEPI

For `N[C@@H](Cc1cc(I)c(Oc2cc(I)c(O)c(I)c2)c(I)c1)C(=O)O` [T4, 3,3′,5,5′-tetraiodothyronine], on MCT8 [1], the “Saturability of transport by MCT8” value is on record as “saturable”. Moreover, the “Transport in rat MCT1 cRNA-injected oocytes compared to control oocytes (in words)” value on rat MCT1 is reported as “no additional uptake”. Moreover, the inhibition at 10 µM on MCT8 [2] (labeled T4 10 nm, inhibitor 10 μM, MCT8 cRNA-injected oocytes, read-out: % inhibition ± SEM of uptake of T4) turned out to be 69 ± 7%; at MCT8 [2] (read-out: % inhibition ± SEM of uptake of T3), 26 ± 7%. For the same compound, the “Inhibition of labeled T4 and T3 uptake by MCT8 (in words)” value on MCT8 [2] (unlabeled competitor, taurocholate and probenecid data not shown) is recorded as “potently inhibited”. For the same compound, the “Substrate specificity: transport by MCT8 (in words)” value on MCT8 [3] (10 nM iodothyronines or amino acids, MCT8 cRNA-injected vs uninjected oocytes) is given as “rapid uptake”. Further, at MCT8 [3] (10 nM, 2 min, 4 C, marked increases at 15, 25 and 37 C), the “Uptake into oocytes at 4 C (in words)” value is recorded as “significant uptake”. Also, the “Na+ dependence of transport by MCT8” value at MCT8 [3] (NaCl replaced by choline chloride) is listed as “modest but consistent inhibition”. At MCT8 [3] (oocytes injected with 4.6 ng MCT8 cRNA, 10 nM ligand, 25 C), the “Increase in initial uptake compared with uninjected oocytes” value is listed as about 10 fold. The “Increase in transport at lowest amount of MCT8 cRNA” value on MCT8 [4] is on record as 7.3 fold.

As a reminder, the inhibition is the drop in the measured response relative to a control, in per cent.
